In patent publication US4468403A, “Analgesic substituted piperidylidene-2-sulfon(cyan)amide derivatives” (priority 1982, dated 1984):

Format: in vivo, male Swiss albino mice
Conditions: 2.0 mg/kg sc, alone
Experimental: The percent change is calculated according to the following equation: % change=100- (no. of writhes in treated group/no. of writhes in control group)×100.

Row | SMILES | % Inhibn, control (single agent) in antagonist study [%]
1 | CN1CCCCC1=NS(=O)(=O)c1ccc(Cl)cc1 [Compound W-3, 1-Methylpiperidylidene-2-(4-chlorophenyl)sulfonamide] | 97

Same assay, conditions: 5.0 mg/kg sc, alone

Row | SMILES | % Inhibn, control (single agent) in antagonist study [%]
2 | CN1CCCCC1=NS(=O)(=O)c1ccc(Cl)cc1 [Compound W-3, 1-Methylpiperidylidene-2-(4-chlorophenyl)sulfonamide] | 100

Same assay, conditions: phenylquinone writhing, mice

Row | SMILES | Analgesic (agonist) activity, in words
3 | CN1CCCCC1=NS(=O)(=O)c1ccc(Cl)cc1 [Compound W-3, 1-Methylpiperidylidene-2-(4-chlorophenyl)sulfonamide] | active analgesics, being comparable to morphine sulfate
4 | COc1ccc(S(=O)(=O)N=C2CCCCN2C)cc1 [Compound W-4, 1-Methylpiperidylidene-2-(4-methoxyphenyl)sulfonamide] | active analgesics, being comparable to morphine sulfate
5 | CN1CCCCC1=NS(=O)(=O)c1ccc([N+](=O)[O-])cc1 [Compound W-6, 1-Methylpiperidylidene-2-(4-nitrophenyl)sulfonamide] | active analgesics, being comparable to morphine sulfate
6 | CN1CCCCC1=NS(=O)(=O)c1cccc([N+](=O)[O-])c1 [Compound W-7, 1-Methylpiperidylidene-2-(3-nitrophenyl)sulfonamide] | active analgesics, being comparable to morphine sulfate
7 | CN1CCCCC1=NS(=O)(=O)c1ccccc1[N+](=O)[O-] [Compound W-8, 1-Methylpiperidylidene-2-(2-nitrophenyl)sulfonamide] | active analgesics, being comparable to morphine sulfate
8 | CN1CCCCC1=NS(=O)(=O)c1ccc(N)cc1 [Compound W-9, 1-Methylpiperidylidene-2-(4-aminophenyl)sulfonamide] | active analgesics, being comparable to morphine sulfate
9 | CN1CCCCC1=NS(=O)(=O)c1cccc(N)c1 [Compound W-10, 1-Methylpiperidylidene-2-(3-aminophenyl)sulfonamide] | active analgesics, being comparable to morphine sulfate

Same assay, conditions: subcutaneous, 30 min before phenyl-p-benzoquinone; dose with 50 % inhibition

Row | SMILES | Analgesic action, inhibition action on phenylquinone writhing: dose giving 50 % inhibition [µg/kg]
10 | CN1CCCC(Br)C1=NC#N (racemic) [Compound 0-1, 3-Bromo-1-methylpiperidylidene-2-cyanamide] | 700
11 | CC(=O)Oc1ccccc1C(=O)O [Aspirin (TM), reference compound] | 50000
12 | CN1CCCCC1=NS(C)(=O)=O [Compound W-1, 1-Methylpiperidylidene-2-methanesulfonamide] | 108000
13 | CN1CCCCC1=NS(=O)(=O)c1ccccc1 [Compound W-2, 1-Methylpiperidylidene-2-benzenesulfonamide] | 68000
14 | CN1CCCCC1=NS(=O)(=O)c1ccc(Cl)cc1 [Compound W-3, 1-Methylpiperidylidene-2-(4-chlorophenyl)sulfonamide] | 3.8
15 | COc1ccc(S(=O)(=O)N=C2CCCCN2C)cc1 [Compound W-4, 1-Methylpiperidylidene-2-(4-methoxyphenyl)sulfonamide] | 2
16 | Cc1ccc(S(=O)(=O)N=C2CCCCN2C)cc1 [Compound W-5, 1-Methylpiperidylidene-2-(4-methylphenyl)sulfonamide] | 2400
17 | CN1CCCCC1=NS(=O)(=O)c1ccc([N+](=O)[O-])cc1 [Compound W-6, 1-Methylpiperidylidene-2-(4-nitrophenyl)sulfonamide] | 2.8
18 | CN1CCCCC1=NS(=O)(=O)c1cccc([N+](=O)[O-])c1 [Compound W-7, 1-Methylpiperidylidene-2-(3-nitrophenyl)sulfonamide] | 2.8
19 | CN1CCCCC1=NS(=O)(=O)c1ccccc1[N+](=O)[O-] [Compound W-8, 1-Methylpiperidylidene-2-(2-nitrophenyl)sulfonamide] | 1.8
20 | CN1CCCCC1=NS(=O)(=O)c1ccc(N)cc1 [Compound W-9, 1-Methylpiperidylidene-2-(4-aminophenyl)sulfonamide] | 7
21 | CN1CCCCC1=NS(=O)(=O)c1cccc(N)c1 [Compound W-10, 1-Methylpiperidylidene-2-(3-aminophenyl)sulfonamide] | 1.7

Same assay, conditions: subcutaneous, at the dose listed for the substance under E1

Row | SMILES | Analgesic action, inhibition action on phenylquinone writhing, % inhibition [%]
22 | CN1CCCC(Br)C1=NC#N (racemic) [Compound 0-1, 3-Bromo-1-methylpiperidylidene-2-cyanamide] | 50
23 | CC(=O)Oc1ccccc1C(=O)O [Aspirin (TM), reference compound] | 50
24 | CN1CCCCC1=NS(C)(=O)=O [Compound W-1, 1-Methylpiperidylidene-2-methanesulfonamide] | 50
25 | CN1CCCCC1=NS(=O)(=O)c1ccccc1 [Compound W-2, 1-Methylpiperidylidene-2-benzenesulfonamide] | 50
26 | CN1CCCCC1=NS(=O)(=O)c1ccc(Cl)cc1 [Compound W-3, 1-Methylpiperidylidene-2-(4-chlorophenyl)sulfonamide] | 50
27 | COc1ccc(S(=O)(=O)N=C2CCCCN2C)cc1 [Compound W-4, 1-Methylpiperidylidene-2-(4-methoxyphenyl)sulfonamide] | 50
28 | Cc1ccc(S(=O)(=O)N=C2CCCCN2C)cc1 [Compound W-5, 1-Methylpiperidylidene-2-(4-methylphenyl)sulfonamide] | 50
29 | CN1CCCCC1=NS(=O)(=O)c1ccc([N+](=O)[O-])cc1 [Compound W-6, 1-Methylpiperidylidene-2-(4-nitrophenyl)sulfonamide] | 50
30 | CN1CCCCC1=NS(=O)(=O)c1cccc([N+](=O)[O-])c1 [Compound W-7, 1-Methylpiperidylidene-2-(3-nitrophenyl)sulfonamide] | 50
31 | CN1CCCCC1=NS(=O)(=O)c1ccccc1[N+](=O)[O-] [Compound W-8, 1-Methylpiperidylidene-2-(2-nitrophenyl)sulfonamide] | 50
32 | CN1CCCCC1=NS(=O)(=O)c1ccc(N)cc1 [Compound W-9, 1-Methylpiperidylidene-2-(4-aminophenyl)sulfonamide] | 50
33 | CN1CCCCC1=NS(=O)(=O)c1cccc(N)c1 [Compound W-10, 1-Methylpiperidylidene-2-(3-aminophenyl)sulfonamide] | 50
